The source of these data is patent publication US20110197373A1, “Depilatory Article” (priority 2010, published 2011).

This assay has as its system unwanted hair on skin. Nature of the assay: removal of hair from the skin with the depilatory article / thioglycolate salts. It is filed as in vivo, human. Particulars: thioglycolate salt as keratin reducing agent. The protocol:
A second aspect being a method of removing hair from the skin is also provided by the present invention, comprising the steps of: • (a) applying a depilatory article according to the present invention to a surface of skin, preferably human skin, • (b) leaving said depilatory article in contact with the skin for a period of at least 1 minute, preferably 2 to 10 minutes, more preferably 2 to 8 minutes, • (c) removing said depilatory article from the surface of the skin, and • (d) preferably rubbing, scraping, rinsing or wiping the surface of the skin in the area to which the depilatory article was applied. The formulation was disposed to a thickness of 0.3 mm, width of 1.5 cm and length of 3.5 cm on a cast HDPE 85% LLDPE 15% polymer blend film (23 microns in thickness and cut to 4.6 cm in length and 3.2 cm in width) using a stencil and wiper blade, such that the area covered by the formulation was centered along the width of the film and 1 mm away from the perimeter edge of one end of the film's length.

In the case of `O=C([O-])CS.[K+]` [potassium thioglycolate], the “effectiveness at removing hair from the skin” value is “effective at removing hair from the skin, even at low doses”.
